Data: the NIST ThermoML archive (doi:10.1007/s10765-008-0491-0)
± gives the expanded uncertainty stated by the source.

Assay: xn = mol fraction of the nth substance listed
Details: 101 kPa, Liquid; for speed of sound: Sing-around technique in a fixed-path interferometer; for mass density: Vibrating tube method; for viscosity: Capillary tube (Ostwald / Ubbelohde) method

CC(C)CCCC(C)CCCC(C)CCCCC(C)CCCC(C)CCCC(C)C (stereo not drawn) [2,6,10,15,19,23-hexamethyltetracosane] + CCCCCCCCO
Details | mass density, 293.15 K [kg/m3] | mass density, 303.15 K [kg/m3] | mass density, 308.15 K [kg/m3] | speed of sound, 293.15 K [m/s] | speed of sound, 303.15 K [m/s] | speed of sound, 308.15 K [m/s] | viscosity, 298.15 K [mPa·s] | viscosity, 303.15 K [mPa·s] | viscosity, 308.15 K [mPa·s]
x2 = 0 | 805.122 ± 0.42 | 801.912 ± 0.42 | 798.709 ± 0.42 | 1381.9 ± 0.9 | 1364.1 ± 0.8 | 1346.5 ± 0.8 | 28.26 ± 0.14 | 22.09 ± 0.11 | 17.77 ± 0.09
x2 = 0.0596 | 805.175 ± 0.42 | 801.944 ± 0.42 | 798.711 ± 0.42 | 1379.9 ± 0.9 | 1362.1 ± 0.8 | 1344.1 ± 0.8 | 24.18 ± 0.12 | 19.21 ± 0.097 | 15.49 ± 0.08
x2 = 0.1053 | 805.299 ± 0.42 | 802.053 ± 0.42 | 798.798 ± 0.42 | 1378.5 ± 0.9 | 1360.4 ± 0.8 | 1343.1 ± 0.8 | 21.92 ± 0.11 | 17.59 ± 0.089 | 14.21 ± 0.073
x2 = 0.1563 | 805.499 ± 0.42 | 802.234 ± 0.42 | 798.947 ± 0.42 | 1376.9 ± 0.9 | 1359.3 ± 0.8 | 1341.5 ± 0.8 | 20.12 ± 0.1 | 16.25 ± 0.083 | 13.14 ± 0.068
x2 = 0.2092 | 805.773 ± 0.42 | 802.479 ± 0.42 | 799.184 ± 0.42 | 1375.7 ± 0.9 | 1357.8 ± 0.8 | 1340.2 ± 0.8 | 18.81 ± 0.095 | 15.26 ± 0.078 | 12.34 ± 0.065
x2 = 0.2648 | 806.107 ± 0.42 | 802.799 ± 0.42 | 799.487 ± 0.42 | 1374.2 ± 0.9 | 1356.4 ± 0.8 | 1338.7 ± 0.8 | 17.88 ± 0.09 | 14.5 ± 0.075 | 11.73 ± 0.062
x2 = 0.3404 | 806.637 ± 0.42 | 803.312 ± 0.42 | 799.989 ± 0.42 | 1372.4 ± 0.9 | 1354.5 ± 0.8 | 1336.8 ± 0.8 | 16.97 ± 0.086 | 13.74 ± 0.071 | 11.13 ± 0.059
x2 = 0.398 | 807.105 ± 0.42 | 803.775 ± 0.42 | 800.439 ± 0.42 | 1370.8 ± 0.9 | 1352.9 ± 0.8 | 1335.3 ± 0.8 | 16.38 ± 0.083 | 13.24 ± 0.069 | 10.72 ± 0.057
x2 = 0.4799 | 807.875 ± 0.42 | 804.507 ± 0.42 | 801.188 ± 0.42 | 1368.6 ± 0.8 | 1350.7 ± 0.8 | 1333.1 ± 0.8 | 15.42 ± 0.079 | 12.45 ± 0.065 | 10.12 ± 0.054
x2 = 0.5974 | 809.279 ± 0.42 | 805.92 ± 0.42 | 802.536 ± 0.42 | 1364.9 ± 0.8 | 1347.1 ± 0.8 | 1329.5 ± 0.8 | 13.55 ± 0.07 | 11.01 ± 0.058 | 9.007 ± 0.049
x2 = 0.6988 | 810.937 ± 0.42 | 807.538 ± 0.42 | 804.116 ± 0.42 | 1361.3 ± 0.8 | 1343.7 ± 0.8 | 1326.1 ± 0.8 | 11.51 ± 0.06 | 9.441 ± 0.051 | 7.786 ± 0.043
x2 = 0.8079 | 813.477 ± 0.42 | 810.008 ± 0.42 | 806.567 ± 0.42 | 1356.9 ± 0.8 | 1339.5 ± 0.8 | 1322.1 ± 0.8 | 9.294 ± 0.05 | 7.693 ± 0.043 | 6.416 ± 0.037
x2 = 0.8519 | 814.812 ± 0.42 | 811.352 ± 0.42 | 807.925 ± 0.42 | 1355.2 ± 0.8 | 1337.8 ± 0.8 | 1320.4 ± 0.8 | 8.533 ± 0.047 | 7.093 ± 0.04 | 5.937 ± 0.034
x2 = 0.8942 | 816.384 ± 0.42 | 812.92 ± 0.42 | 809.463 ± 0.42 | 1353.2 ± 0.8 | 1335.9 ± 0.8 | 1318.7 ± 0.8 | 7.963 ± 0.044 | 6.624 ± 0.038 | 5.572 ± 0.033
x2 = 0.9474 | 818.773 ± 0.42 | 815.429 ± 0.42 | 811.955 ± 0.42 | 1350.6 ± 0.8 | 1333.5 ± 0.8 | 1316.4 ± 0.8 | 7.526 ± 0.042 | 6.288 ± 0.036 | 5.31 ± 0.031

CCCCCCCCCCCCCCCC [hexadecane] + CCCCCCCCO
Details | mass density, 293.15 K [kg/m3] | mass density, 303.15 K [kg/m3] | mass density, 308.15 K [kg/m3] | speed of sound, 293.15 K [m/s] | speed of sound, 303.15 K [m/s] | speed of sound, 308.15 K [m/s] | viscosity, 298.15 K [mPa·s] | viscosity, 303.15 K [mPa·s] | viscosity, 308.15 K [mPa·s]
x2 = 0 | 770.456 ± 0.42 | 766.981 ± 0.42 | 763.52 ± 0.42 | 1338.6 ± 0.8 | 1320 ± 0.8 | 1301.7 ± 0.8 | 3.041 ± 0.019 | 2.706 ± 0.017 | 2.409 ± 0.015
x2 = 0.0461 | 771.581 ± 0.42 | 768.09 ± 0.42 | 764.586 ± 0.42 | 1337 ± 0.8 | 1318.4 ± 0.8 | 1299.9 ± 0.8 | 3.073 ± 0.019 | 2.748 ± 0.017 | 2.402 ± 0.015
x2 = 0.1039 | 773.103 ± 0.42 | 769.605 ± 0.42 | 766.078 ± 0.42 | 1335.7 ± 0.8 | 1317.1 ± 0.8 | 1298.7 ± 0.8 | 3.089 ± 0.019 | 2.741 ± 0.017 | 2.399 ± 0.015
x2 = 0.1547 | 774.574 ± 0.42 | 771.039 ± 0.42 | 767.495 ± 0.42 | 1334.7 ± 0.8 | 1316.1 ± 0.8 | 1297.7 ± 0.8 | 3.096 ± 0.019 | 2.728 ± 0.017 | 2.406 ± 0.015
x2 = 0.1944 | 775.766 ± 0.42 | 772.218 ± 0.42 | 768.68 ± 0.42 | 1334.3 ± 0.8 | 1315.8 ± 0.8 | 1297.4 ± 0.8 | 3.107 ± 0.019 | 2.728 ± 0.017 | 2.419 ± 0.015
x2 = 0.2685 | 778.197 ± 0.42 | 774.63 ± 0.42 | 771.077 ± 0.42 | 1333.7 ± 0.8 | 1315.3 ± 0.8 | 1296.9 ± 0.8 | 3.175 ± 0.019 | 2.773 ± 0.017 | 2.473 ± 0.015
x2 = 0.3383 | 780.693 ± 0.42 | 777.145 ± 0.42 | 773.575 ± 0.42 | 1333.5 ± 0.8 | 1315.1 ± 0.8 | 1296.8 ± 0.8 | 3.29 ± 0.02 | 2.881 ± 0.018 | 2.561 ± 0.016
x2 = 0.4099 | 783.479 ± 0.42 | 779.937 ± 0.42 | 776.383 ± 0.42 | 1333.3 ± 0.8 | 1314.9 ± 0.8 | 1296.8 ± 0.8 | 3.472 ± 0.021 | 3.041 ± 0.019 | 2.688 ± 0.017
x2 = 0.4981 | 787.31 ± 0.42 | 783.781 ± 0.42 | 780.228 ± 0.42 | 1333.5 ± 0.8 | 1315.3 ± 0.8 | 1297.2 ± 0.8 | 3.768 ± 0.023 | 3.307 ± 0.02 | 2.896 ± 0.018
x2 = 0.6017 | 792.441 ± 0.42 | 788.911 ± 0.42 | 785.346 ± 0.42 | 1334.2 ± 0.8 | 1316.2 ± 0.8 | 1298.4 ± 0.8 | 4.223 ± 0.026 | 3.681 ± 0.022 | 3.218 ± 0.02
x2 = 0.6927 | 797.621 ± 0.42 | 794.075 ± 0.42 | 790.488 ± 0.42 | 1335.8 ± 0.8 | 1317.9 ± 0.8 | 1300.2 ± 0.8 | 4.714 ± 0.028 | 4.086 ± 0.025 | 3.554 ± 0.022
x2 = 0.7963 | 804.426 ± 0.42 | 800.846 ± 0.42 | 797.284 ± 0.42 | 1338.5 ± 0.8 | 1320.9 ± 0.8 | 1303.4 ± 0.8 | 5.384 ± 0.032 | 4.663 ± 0.028 | 4.008 ± 0.024
x2 = 0.8445 | 808.003 ± 0.42 | 804.438 ± 0.42 | 800.882 ± 0.42 | 1340.1 ± 0.8 | 1322.6 ± 0.8 | 1305.3 ± 0.8 | 5.757 ± 0.034 | 4.992 ± 0.03 | 4.251 ± 0.026
x2 = 0.895 | 812.077 ± 0.42 | 808.561 ± 0.42 | 805.017 ± 0.42 | 1342.2 ± 0.8 | 1324.9 ± 0.8 | 1307.8 ± 0.8 | 6.219 ± 0.036 | 5.383 ± 0.032 | 4.54 ± 0.027
x2 = 0.9529 | 817.221 ± 0.42 | 813.871 ± 0.42 | 810.331 ± 0.42 | 1344.9 ± 0.8 | 1327.9 ± 0.8 | 1310.9 ± 0.8 | 6.86 ± 0.039 | 5.883 ± 0.034 | 4.944 ± 0.03

CCCCCCCCO [octan-1-ol] + CC(C)CCCC(C)CCCC(C)CCCCC(C)CCCC(C)CCCC(C)C
x1 = 1
Details | mass density [kg/m3] | speed of sound [m/s] | viscosity [mPa·s]
293.15 K | 821.813 ± 0.42 | 1348 ± 0.8 | –
298.15 K | – | – | 7.506 ± 0.042
303.15 K | 818.796 ± 0.42 | 1330.8 ± 0.8 | 6.344 ± 0.036
308.15 K | 815.286 ± 0.42 | 1314.1 ± 0.8 | 5.363 ± 0.032

CCCCCCCCO [octan-1-ol] + CCCCCCCCCCCCCCCC
x1 = 1
Details | mass density [kg/m3] | speed of sound [m/s] | viscosity [mPa·s]
293.15 K | 821.813 ± 0.42 | 1348 ± 0.8 | –
298.15 K | – | – | 7.508 ± 0.042
303.15 K | 818.796 ± 0.42 | 1330.8 ± 0.8 | 6.344 ± 0.036
308.15 K | 815.286 ± 0.42 | 1314.1 ± 0.8 | 5.363 ± 0.032
